Experimental findings from ChEMBL document CHEMBL4177569, “Design, synthesis and preliminary antiproliferative activity studies of new diheteroaryl thioether derivatives” (Bioorg Med Chem Lett, 2017) are described below.

What all share (format): functional, cell-based
Assay [1] concerns ECa-109 cell line. The assay is described as follows: Antiproliferative activity against human EC109 cells after 48 hrs by MTT assay. The following applies: ECa-109, 48 h.
For assay [2], the system named is MKN-45. Nature of the assay: Antiproliferative activity against human MKN45 cells after 48 hrs by MTT assay. The following applies: MKN-45, 48 h. (Tetrazolium dyes change colour on reduction, which living cells bring about.)
Assay [3] deals with NCI-H1650. The assay is described as follows: Antiproliferative activity against human NCI-H1650 cells after 48 hrs by MTT assay. The settings on record: NCI-H1650, 48 h.
Assay [4] concerns MGC-803. Nature of the assay: Antiproliferative activity against human MGC803 cells after 48 hrs by MTT assay. The settings on record: MGC-803, 48 h.

Usually IC50 stands for the midpoint of a concentration-inhibition curve. High values mean a need for much substance, low ones inhibition by little substance.

Structures are written as SMILES.

On to `O=c1[nH]cc(F)c(=O)[nH]1` [FLUOROURACIL], for which the IC50 in assay [1] is 6.21 µM; in assay [2] it was 8.89 µM; in assay [3], 14.2 µM; in assay [4] it was 7.52 µM.
